Reference: ChEMBL document CHEMBL1201862, “PubChem BioAssay data set” (2004)
Active and inactive are the calls of the source.

Experiments:
[1] = target: T1, Acyl-homoserine lactone acylase PvdQ (Pseudomonas aeruginosa (strain LESB58), UniProt Q9I194); experiment: P. aeruginosa PvdQ acylase inhibitors, dose response, biochemical, fluorescence, plate reader and imaging, cherry-picks (AID 493231)
T1 sequence (Q9I194 whole entry): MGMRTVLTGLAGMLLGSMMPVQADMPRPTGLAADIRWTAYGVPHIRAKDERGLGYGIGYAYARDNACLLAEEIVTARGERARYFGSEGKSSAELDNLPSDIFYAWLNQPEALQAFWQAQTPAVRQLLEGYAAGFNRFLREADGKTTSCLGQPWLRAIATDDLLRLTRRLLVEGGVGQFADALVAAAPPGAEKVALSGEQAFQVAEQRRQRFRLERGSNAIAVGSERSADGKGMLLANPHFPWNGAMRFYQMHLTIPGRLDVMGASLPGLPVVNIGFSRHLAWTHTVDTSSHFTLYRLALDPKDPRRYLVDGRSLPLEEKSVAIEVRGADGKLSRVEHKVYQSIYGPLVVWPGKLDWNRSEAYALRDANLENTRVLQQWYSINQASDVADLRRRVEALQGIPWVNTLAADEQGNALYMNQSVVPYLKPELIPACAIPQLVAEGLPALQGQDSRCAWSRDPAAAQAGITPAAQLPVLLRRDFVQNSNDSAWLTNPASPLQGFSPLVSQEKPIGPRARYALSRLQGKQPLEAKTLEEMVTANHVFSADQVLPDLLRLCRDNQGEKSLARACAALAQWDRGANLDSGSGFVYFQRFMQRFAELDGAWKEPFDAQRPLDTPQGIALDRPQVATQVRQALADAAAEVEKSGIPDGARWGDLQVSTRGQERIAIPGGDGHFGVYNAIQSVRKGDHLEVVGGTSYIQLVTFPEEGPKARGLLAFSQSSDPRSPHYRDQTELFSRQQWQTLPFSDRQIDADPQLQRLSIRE

[2] = target: T2, Cannabinoid receptor 1 (Homo sapiens, UniProt P21554); experiment: SAR analysis of agonists of the Cannabinoid Receptor 1 using an Image-Based Assay - Set 4. [Related pubchem assays (depositor defined):AID2013, AID2026]; assay type: functional
[3] = target: T3, Cannabinoid receptor 2 (Homo sapiens, UniProt P34972); experiment: SAR analysis of antagonists of the Cannabinoid Receptor 2 using an Image-Based Assay - Set 3. [Related pubchem assays (depositor defined):AID2013, AID2026]; assay type: functional
[4] = target: T4, G-protein coupled receptor 35 (Homo sapiens, UniProt Q9HC97); experiment: SAR analysis of Antagonists of the GPR35 Receptor using an Image-Based Assay - Set 6. [Related pubchem assays (depositor defined):AID2013, AID2026]; assay type: functional
[5] = target: T2, Cannabinoid receptor 1; experiment: SAR analysis of antagonists of the Cannabinoid Receptor 1 using an Image-Based Assay - Set 4. [Related pubchem assays (depositor defined):AID2013, AID2026]; assay type: functional
[6] = target: G-protein coupled receptor 55 (Homo sapiens, UniProt Q9Y2T6); experiment: SAR Analysis of Selective Antagonists of GPR55 using an Image-Based Assay - Set 4. [Related pubchem assays (depositor defined):AID2013, AID2026]; assay type: functional;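 note: antagonism of response to 5 µM lysophosphatidylinositol agonist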
[7] = target: T3, Cannabinoid receptor 2; experiment: SAR analysis of agonists of the Cannabinoid Receptor 2 using an Image-Based Assay - Set 3. [Related pubchem assays (depositor defined):AID2013, AID2026]; assay type: functional
[8] = target: T4, G-protein coupled receptor 35; experiment: SAR analysis of Agonists of the GPR35 Receptor using an Image-Based Assay - Set 4. [Related pubchem assays (depositor defined):AID2013, AID2026]; assay type: functional
[9] = target: T5, Epstein-Barr nuclear antigen 1 (Epstein-Barr virus (strain B95-8) (HHV-4) (Human herpesvirus 4), UniProt P03211); experiment: EBNA-1 inhibitors, dose response, biochemical, fluorescence polarization, 1536-well (AID 2381); set-up: species or system human gammaherpesvirus 4;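 note: fluorescence polarization of a Cy5 DNA probe bound by EBNA-1 protein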
T5 sequence (P03211 whole entry): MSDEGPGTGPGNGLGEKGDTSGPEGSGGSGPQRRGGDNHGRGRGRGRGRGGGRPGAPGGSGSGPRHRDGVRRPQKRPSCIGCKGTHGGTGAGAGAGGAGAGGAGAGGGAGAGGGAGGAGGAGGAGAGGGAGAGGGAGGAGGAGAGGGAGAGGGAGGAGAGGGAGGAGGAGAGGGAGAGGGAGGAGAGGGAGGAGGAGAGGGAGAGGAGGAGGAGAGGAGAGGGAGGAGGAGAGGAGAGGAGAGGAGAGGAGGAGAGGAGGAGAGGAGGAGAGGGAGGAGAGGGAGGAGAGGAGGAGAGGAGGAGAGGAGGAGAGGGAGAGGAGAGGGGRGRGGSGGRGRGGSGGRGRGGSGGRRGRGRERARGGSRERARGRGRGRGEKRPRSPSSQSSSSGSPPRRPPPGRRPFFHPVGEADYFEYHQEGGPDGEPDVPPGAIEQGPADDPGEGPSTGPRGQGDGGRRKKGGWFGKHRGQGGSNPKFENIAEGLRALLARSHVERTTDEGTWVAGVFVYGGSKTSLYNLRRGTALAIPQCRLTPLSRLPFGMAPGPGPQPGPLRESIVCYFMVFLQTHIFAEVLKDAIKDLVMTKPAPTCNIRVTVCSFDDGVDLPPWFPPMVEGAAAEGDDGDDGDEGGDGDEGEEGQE

[10] = target: T6, Lytic switch protein BZLF1 (Epstein-Barr virus (strain B95-8) (HHV-4) (Human herpesvirus 4), UniProt P03206); experiment: EBV ZTA inhibitors, dose response, counter-screen for EBNA-1 inhibitor project, biochemical, fluorescence polarization, Epstein-Barr virus, 1536-well (AID 2377); set-up: species or system human gammaherpesvirus 4;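 note: fluorescence polarization of Cy5-labelled ZRE DNA probe bound by purified Zta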
T6 sequence (P03206 whole entry): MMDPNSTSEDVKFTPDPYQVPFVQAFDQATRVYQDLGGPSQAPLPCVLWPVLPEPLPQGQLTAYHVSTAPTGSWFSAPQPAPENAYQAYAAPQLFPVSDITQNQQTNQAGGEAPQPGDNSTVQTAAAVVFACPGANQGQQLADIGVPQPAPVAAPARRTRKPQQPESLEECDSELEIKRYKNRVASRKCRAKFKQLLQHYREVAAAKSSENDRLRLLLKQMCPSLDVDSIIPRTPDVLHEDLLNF

[11] = target: T7, Short transient receptor potential channel 4 (Mus musculus, UniProt Q9QUQ5); experiment: mouse TRPC4 channel inhibitors, dose response, cell-based, HEK293 TRPC4/mu-opioid, Fluo-4 calcium (AID 434942); assay type: functional;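 note: potency of inhibitors blocking the TRPC4 calcium response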
T7 sequence (Q9QUQ5 whole entry): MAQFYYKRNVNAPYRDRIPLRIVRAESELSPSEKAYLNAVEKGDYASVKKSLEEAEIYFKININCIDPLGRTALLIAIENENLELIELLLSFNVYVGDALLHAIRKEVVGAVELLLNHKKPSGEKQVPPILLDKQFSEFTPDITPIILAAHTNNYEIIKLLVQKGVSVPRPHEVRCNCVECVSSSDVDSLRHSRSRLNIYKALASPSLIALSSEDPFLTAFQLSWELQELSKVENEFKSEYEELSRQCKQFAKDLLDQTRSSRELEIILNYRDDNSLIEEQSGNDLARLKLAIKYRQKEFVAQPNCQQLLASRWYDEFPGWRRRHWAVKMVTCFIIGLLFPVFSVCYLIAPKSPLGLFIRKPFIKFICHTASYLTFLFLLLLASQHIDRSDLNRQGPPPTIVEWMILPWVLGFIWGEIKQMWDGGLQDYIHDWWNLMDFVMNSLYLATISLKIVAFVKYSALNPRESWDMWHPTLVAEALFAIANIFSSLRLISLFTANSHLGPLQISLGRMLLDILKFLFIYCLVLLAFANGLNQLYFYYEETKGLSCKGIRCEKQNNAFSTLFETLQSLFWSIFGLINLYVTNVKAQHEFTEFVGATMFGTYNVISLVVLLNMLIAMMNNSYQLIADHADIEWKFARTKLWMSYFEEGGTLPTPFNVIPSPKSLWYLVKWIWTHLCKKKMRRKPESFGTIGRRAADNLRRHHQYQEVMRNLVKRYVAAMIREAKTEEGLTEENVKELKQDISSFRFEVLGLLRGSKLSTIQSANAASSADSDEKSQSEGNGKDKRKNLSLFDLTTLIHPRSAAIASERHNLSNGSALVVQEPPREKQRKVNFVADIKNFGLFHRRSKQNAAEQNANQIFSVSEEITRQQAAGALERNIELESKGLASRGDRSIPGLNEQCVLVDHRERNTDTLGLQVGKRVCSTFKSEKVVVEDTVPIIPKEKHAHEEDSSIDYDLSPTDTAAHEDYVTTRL

[12] = cells; assay type: functional, cell-based
[13] = cells; assay type: functional, cell-based; remark: listed apart in the source
[14] = HepG2 cell cytotoxicity, dose response, cytotoxicity control for non-replicating M. tuberculosis project (AID 489018); assay type: functional; conditions: Mycobacterium tuberculosis
[15] = cells; assay type: functional
[16] = tested on: Streptococcus; experiment: Group A Streptococcus viability loss, dose response, counter-screen for streptokinase expression inhibitor project, luminescence, BacTiterGlo (AID 1915); assay type: functional, organism-based;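 note: potency for reduction of bacterial viability or growth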
[17] = target: T8, Probable nicotinate-nucleotide adenylyltransferase (Staphylococcus aureus (strain N315), UniProt P65502); assay type: functional, Staphylococcus aureus subsp. aureus N315; conditions: read-out: IC50_Mean;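 for IC50 Mean: confirmatory dose-response retesting of NadD inhibitor hits first found in an ultra-high-throughput screen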
[18] = target: T9, Streptokinase A (Streptococcus pyogenes serotype M1, UniProt P10520); experiment: S. pyogenes streptokinase expression inhibitors, potency, dose response, plasminogen activation absorbance, OD405 (AID 1914); assay type: functional, Streptococcus pyogenes M1 GAS;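 note: secreted streptokinase activity via plasminogen activation per viability signal from cell pellet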
T9 sequence (P10520 whole entry): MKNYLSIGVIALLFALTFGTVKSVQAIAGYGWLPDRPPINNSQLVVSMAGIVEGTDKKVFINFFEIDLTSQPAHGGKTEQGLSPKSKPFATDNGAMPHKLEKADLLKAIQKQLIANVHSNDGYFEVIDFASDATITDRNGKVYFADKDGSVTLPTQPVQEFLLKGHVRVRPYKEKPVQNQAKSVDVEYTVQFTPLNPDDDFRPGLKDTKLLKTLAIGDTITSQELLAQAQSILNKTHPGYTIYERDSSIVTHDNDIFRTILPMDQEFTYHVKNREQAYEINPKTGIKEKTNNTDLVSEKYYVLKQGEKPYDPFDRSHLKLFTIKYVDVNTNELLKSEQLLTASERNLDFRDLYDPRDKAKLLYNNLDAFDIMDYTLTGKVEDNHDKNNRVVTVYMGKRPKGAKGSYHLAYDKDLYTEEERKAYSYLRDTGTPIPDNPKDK

[19] = target: T10, Coagulation factor XII (Homo sapiens, UniProt P00748); assay type: functional;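 note: activated factor XIIa alpha cleaving a fluorogenic AMC peptide substrate; inhibitor potency from loss of enzyme activity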
T10 sequence (P00748 whole entry): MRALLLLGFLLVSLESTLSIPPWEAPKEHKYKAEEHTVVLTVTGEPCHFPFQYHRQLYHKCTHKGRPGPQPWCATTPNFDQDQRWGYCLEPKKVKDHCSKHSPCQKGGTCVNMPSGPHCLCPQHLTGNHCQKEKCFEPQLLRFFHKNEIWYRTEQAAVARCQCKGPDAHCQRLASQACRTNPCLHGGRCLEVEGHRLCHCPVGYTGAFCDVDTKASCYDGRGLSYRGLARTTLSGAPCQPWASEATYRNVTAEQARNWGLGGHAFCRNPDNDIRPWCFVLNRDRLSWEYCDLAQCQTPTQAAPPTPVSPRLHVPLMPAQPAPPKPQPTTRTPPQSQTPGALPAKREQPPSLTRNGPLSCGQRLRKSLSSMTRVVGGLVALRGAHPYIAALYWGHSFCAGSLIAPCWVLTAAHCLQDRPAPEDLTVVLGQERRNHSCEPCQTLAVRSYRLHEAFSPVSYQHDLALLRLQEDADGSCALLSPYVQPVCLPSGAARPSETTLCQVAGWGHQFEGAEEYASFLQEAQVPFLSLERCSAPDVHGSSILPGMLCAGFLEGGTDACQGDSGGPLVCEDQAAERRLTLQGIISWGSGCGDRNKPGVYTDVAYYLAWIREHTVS

[20] = target: T8, Probable nicotinate-nucleotide adenylyltransferase; assay type: functional, Staphylococcus aureus subsp. aureus N315
[21] = tested on: Streptococcus sp. 'group A'; experiment: growth inhibition of control SK(-) GAS strain, dose response, counter-screen for streptokinase expression inhibitor project, luminescence, kanamycin, BacTiterGlo, confirmation (AID 1900); assay type: functional, organism-based

T2 sequence (P21554 whole entry): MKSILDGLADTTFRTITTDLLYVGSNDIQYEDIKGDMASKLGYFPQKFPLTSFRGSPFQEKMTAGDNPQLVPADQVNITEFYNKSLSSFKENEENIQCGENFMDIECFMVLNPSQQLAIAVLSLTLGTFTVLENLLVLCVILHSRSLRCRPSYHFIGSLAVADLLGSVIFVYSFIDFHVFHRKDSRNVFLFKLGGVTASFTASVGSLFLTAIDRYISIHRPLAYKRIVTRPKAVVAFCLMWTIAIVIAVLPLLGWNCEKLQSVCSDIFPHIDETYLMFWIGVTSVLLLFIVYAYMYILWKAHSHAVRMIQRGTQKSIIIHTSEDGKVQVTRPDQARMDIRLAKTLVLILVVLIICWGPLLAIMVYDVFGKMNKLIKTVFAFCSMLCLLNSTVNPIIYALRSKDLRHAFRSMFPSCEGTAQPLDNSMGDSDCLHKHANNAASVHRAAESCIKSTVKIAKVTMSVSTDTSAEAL
T4 sequence (Q9HC97 whole entry): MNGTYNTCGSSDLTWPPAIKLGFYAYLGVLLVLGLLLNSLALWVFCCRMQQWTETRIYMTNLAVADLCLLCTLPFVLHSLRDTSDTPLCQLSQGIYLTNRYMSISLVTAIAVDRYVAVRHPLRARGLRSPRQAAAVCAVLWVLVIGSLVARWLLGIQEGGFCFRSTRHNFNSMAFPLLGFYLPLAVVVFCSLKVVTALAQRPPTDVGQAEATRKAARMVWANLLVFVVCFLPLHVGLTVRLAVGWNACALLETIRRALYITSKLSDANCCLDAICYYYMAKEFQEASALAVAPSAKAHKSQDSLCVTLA
T3 sequence (P34972 whole entry): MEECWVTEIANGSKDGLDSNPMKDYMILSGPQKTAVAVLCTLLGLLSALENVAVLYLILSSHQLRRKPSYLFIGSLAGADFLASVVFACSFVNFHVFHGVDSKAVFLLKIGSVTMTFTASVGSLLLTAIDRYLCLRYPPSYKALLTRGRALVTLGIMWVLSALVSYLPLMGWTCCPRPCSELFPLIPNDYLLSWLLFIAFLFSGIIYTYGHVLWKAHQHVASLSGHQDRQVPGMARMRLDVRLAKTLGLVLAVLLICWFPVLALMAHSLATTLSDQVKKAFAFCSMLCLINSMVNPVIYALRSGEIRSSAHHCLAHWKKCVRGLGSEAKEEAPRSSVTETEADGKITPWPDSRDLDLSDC
Sequence of G-protein coupled receptor 55 (Q9Y2T6 whole entry): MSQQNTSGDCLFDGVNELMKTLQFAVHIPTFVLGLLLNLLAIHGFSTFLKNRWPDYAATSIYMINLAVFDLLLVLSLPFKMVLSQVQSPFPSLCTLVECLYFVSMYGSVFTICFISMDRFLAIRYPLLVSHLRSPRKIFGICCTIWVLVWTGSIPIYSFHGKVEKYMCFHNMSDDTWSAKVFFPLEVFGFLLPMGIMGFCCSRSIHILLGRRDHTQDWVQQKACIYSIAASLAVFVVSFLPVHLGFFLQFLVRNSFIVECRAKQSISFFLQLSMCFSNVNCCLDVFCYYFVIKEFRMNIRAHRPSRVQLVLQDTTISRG
T8 sequence (P65502 whole entry): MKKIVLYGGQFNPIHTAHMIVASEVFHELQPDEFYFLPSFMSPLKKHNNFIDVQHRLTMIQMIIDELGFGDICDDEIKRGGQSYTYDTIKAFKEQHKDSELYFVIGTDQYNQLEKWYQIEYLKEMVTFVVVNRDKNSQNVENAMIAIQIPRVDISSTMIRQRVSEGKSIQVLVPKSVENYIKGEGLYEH

Row | Compound | EC50 [2] | IC50 [3] | IC50 [4] | IC50 [5] | IC50 [6] | EC50 [7] | EC50 [8] | other results
1 | COc1ccc(CC(C)Nc2cccc(F)c2)cc1 (stereo not drawn) |  |  |  |  |  |  |  | AC50 [1]: 14.5 µM (active)
2 | CCN(CC)S(=O)(=O)c1ccc(NC(=O)c2cc(-c3ccccc3)nc3ccccc23)cc1 | > 32 µM (inactive) | > 10.8 µM (inactive) | > 32 µM (inactive) | 0.352 µM (active) | > 32 µM (inactive) | > 32 µM (inactive) | > 32 µM (inactive) | 
3 | O=C(NC1CCCCCCC1)c1cc(F)c(F)cc1Cl |  |  |  |  |  |  |  | AC50 [1]: 52.8 µM (active)
4 | CCOc1cc(C(=O)OCC(=O)c2c(N)n(C)c(=O)n(C)c2=O)cc(OCC)c1OCC |  |  |  |  |  |  |  | IC50 [9]: 19.3 µM (not active); IC50 [10]: > 111 µM (not active)
5 | Cc1nn(C(=O)c2cccnc2)c(C)c1Sc1ccccc1 |  |  |  |  |  |  |  | EC50 [11]: 3.35 µM (active); EC50 [12]: > 350 µM (not active); EC50 [13]: > 350 µM (not active)
6 | O=C(COC(=O)CCc1c[nH]c2ccccc12)Nc1ccc([N+](=O)[O-])cc1 |  |  |  |  |  |  |  | CC50 [14]: > 20 µM (active); IC50 [15]: 9.62 µM (active)
7 | Cc1ccc(-c2cc(C(=O)Nc3ccc(S(=O)(=O)Nc4cc(C)on4)cc3)c3ccccc3n2)c(C)c1 | > 32 µM (inactive) | > 32 µM (inactive) | > 32 µM (inactive) | 9.14 µM (active) | > 32 µM (inactive) | > 32 µM (inactive) | > 32 µM (inactive) | EC50 [16]: 25.2 µM (active); IC50 [17]: 15.4 µM (active); EC50 [18]: 9.4 µM (active); IC50 [19]: > 50 µM (inactive); IC50 [20]: 4.38 µM (active); EC50 [21]: 12.1 µM (active)
8 | Cc1nc(N2CCN(C(=O)c3ccc4c(c3)OCCO4)CC2)c2c3c(sc2n1)CCCC3 | > 32 µM (inactive) | 24.2 µM (inactive) | > 32 µM (inactive) | 3.36 µM (active) | 21.4 µM (inactive) | > 32 µM (inactive) | > 32 µM (inactive) | 
9 | CN1C(=O)N(C)C2(c3ccccc3)Nn3c(s/c(=C/c4ccco4)c3=O)=NC12c1ccccc1 (stereo not drawn) |  |  |  |  |  |  |  | IC50 [9]: > 5.47 µM (active); IC50 [10]: > 111 µM (not active)
